These results are taken from ChEMBL document CHEMBL1201862, “PubChem BioAssay data set” (2004).

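Cultured in 96-well plates, cells were exposed to test compound for 48 hours across five concentrations. Abbreviation: GI50, concentration required for 50% inhibition of growth.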 Active and inactive are the calls of the source. No stated cut-off is given here; in the data, active = GI50 up to about 1.1 µM and inactive = higher.

Among the test systems are MOLT-4; 786-0; U-251; IGROV-1; ACHN; SK-OV-3; CAKI-1; COLO 205; A549; K562; A498; HL-60; OVCAR-5; NCI-H460; NCI-H522; HCT-116.
Holding throughout (assay): growth of human tumour cells (NCI), 48 h

Regarding `CCc1cccc(C)c1NC(=O)C1=C(C)NC(C)=C(C(=O)Nc2c(C)cccc2CC)C1c1ccc2c(c1)OCO2`, the GI50 is 21.2 µM (inactive) in the assay with MOLT-4; 16.7 µM (inactive) in the assay with 786-0; 15.2 µM (inactive) in the assay on U-251; 24.7 µM (inactive) in the assay with IGROV-1; 15.5 µM (inactive) in the assay on ACHN; 48.9 µM (inactive) in the assay on SK-OV-3. In addition, the GI50 in the assay on CAKI-1 is 18.8 µM (inactive); with COLO 205, 18.5 µM (inactive); in the assay with A549, 16.9 µM (inactive); in the assay with K562 it was 27.2 µM (inactive); with A498, 11.3 µM (inactive); with HL-60, 21.4 µM (inactive). Besides, the figures for the GI50 in the assay with OVCAR-5, in the assay with NCI-H460 and with NCI-H522 were 22 µM (inactive), 16.1 µM (inactive) and 15.9 µM (inactive), respectively.
Turning to `N#Cc1cccc(C2SCc3nc4ccccc4n32)c1` (centres undefined), the GI50 in the assay with MOLT-4 is 38.7 µM (inactive); with 786-0 it was > 100 µM (inactive); with U-251, > 100 µM (inactive); in the assay on IGROV-1, 32.9 µM (inactive); with ACHN it was 74 µM (inactive); with SK-OV-3, > 100 µM (inactive). For the same compound, the GI50 is 32.4 µM (inactive) in the assay on CAKI-1; > 100 µM (inactive) with COLO 205; 92.7 µM (inactive) in the assay with A549; 54.6 µM (inactive) with K562; 95.9 µM (inactive) with A498; 62.8 µM (inactive) in the assay with HL-60. Moreover, the GI50 in the assay with OVCAR-5 is 48 µM (inactive); in the assay on NCI-H460 it was > 100 µM (inactive); in the assay with NCI-H522, 69.3 µM (inactive).
As to `O=C(NCc1ccccc1)c1cc2ccc(O)c(O)c2cn1`, the GI50 in the assay on HCT-116 is 17.7 µM (inactive); in the assay with 786-0, 18 µM (inactive); in the assay with U-251, 23.3 µM (inactive); in the assay with IGROV-1, 23.7 µM (inactive); in the assay with ACHN, 15.5 µM (inactive); in the assay with SK-OV-3 it was > 100 µM (inactive). For the same compound, the GI50 is 17.2 µM (inactive) with CAKI-1; 32.1 µM (inactive) with COLO 205; 38.5 µM (inactive) with A549; 33.8 µM (inactive) with K562; > 100 µM (inactive) in the assay with A498; 18.8 µM (inactive) in the assay on HL-60. Besides, the GI50 is 26 µM (inactive) with OVCAR-5, 21.7 µM (inactive) in the assay on NCI-H460 and 16.6 µM (inactive) with NCI-H522.
For the compound `Nc1nc2c(ncn2CCOC(c2ccccc2)P(=O)(O)O)c(=O)[nH]1` (centres undefined), the GI50 in the assay on HCT-116 was > 100 µM (inactive); in the assay with 786-0 it was > 100 µM (inactive); with U-251 it was 1.09 µM (active); with IGROV-1, > 100 µM (inactive); in the assay with ACHN, > 100 µM (inactive); with SK-OV-3, > 100 µM (inactive). For the same compound, the GI50 in the assay on CAKI-1, with COLO 205, in the assay with A549, with A498, in the assay on HL-60 and with OVCAR-5 was > 100 µM (inactive) each time. The GI50 in the assay on NCI-H460 and in the assay with NCI-H522 was > 100 µM (inactive) in each case.
As to `NC(=O)NNC(=O)CCn1[nH]c(=O)c(Cl)c(Cl)c1=O`, the GI50 with HCT-116, in the assay with 786-0, in the assay with U-251, in the assay with IGROV-1, in the assay on ACHN and with SK-OV-3 was > 100 µM (inactive) in each case. The GI50 in the assay on CAKI-1, with COLO 205, with A549, in the assay with K562, in the assay on A498 and in the assay with HL-60 was > 100 µM (inactive) throughout. Besides, the GI50 with OVCAR-5, in the assay with NCI-H460 and with NCI-H522 was > 100 µM (inactive) each time.
